In the assay the target is T1, LysM3 (Pseudomonas savastanoi, UniProt Q48F89).
T1 construct: gene PSPPH_3810; LysM + M23 domains; pET28a::lysM3 in E. coli BL21(DE3), HisTrap IMAC then SEC
Put plainly: nanoDSF (Tycho NT.[…]) thermal shift. The settings on record: 1 mM ligand, 5 µM protein, no Zn2+, 20 mM Hepes pH 8.0, 150 mM NaCl. It is filed as binding. In general terms: In DSF a fluorescence change marks the thermal transition of the protein.

The values below come from PMC12327690, “Secreted LysM proteins are required for niche competition and full virulence in Pseudomonas savastanoi during host plant infection” (PLOS Pathogens, 2025).

T1 sequence (Q48F89 entry or part of it): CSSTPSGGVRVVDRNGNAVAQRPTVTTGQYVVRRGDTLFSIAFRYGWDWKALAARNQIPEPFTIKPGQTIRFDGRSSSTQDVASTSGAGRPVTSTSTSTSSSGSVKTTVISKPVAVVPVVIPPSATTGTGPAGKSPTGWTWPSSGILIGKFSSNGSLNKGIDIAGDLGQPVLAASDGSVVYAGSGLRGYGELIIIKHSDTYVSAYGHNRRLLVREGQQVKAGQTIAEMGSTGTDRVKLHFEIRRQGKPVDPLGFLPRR

For the compound `CC(=O)N[C@H]1[C@H](O[C@H]2[C@H](O)[C@@H](NC(C)=O)C(O)O[C@@H]2CO)O[C@H](CO)[C@@H](O[C@@H]2O[C@H](CO)[C@@H](O[C@@H]3O[C@H](CO)[C@@H](O)[C@H](O)[C@H]3NC(C)=O)[C@H](O)[C@H]2NC(C)=O)[C@@H]1O` (some centres unmarked) [NAG4, tetra-N-acetylglucosamine], the “Ti with ligand (LysM3 alone 51.4 ± 0.1)” value worked out at 52.9 ± 0.1 °C.
For the compound `CC(=O)N[C@H]1[C@H](O[C@H]2[C@H](O)[C@@H](NC(C)=O)[C@H](O[C@H]3[C@H](O)[C@@H](NC(C)=O)C(O)O[C@@H]3CO)O[C@@H]2CO)O[C@H](CO)[C@@H](O[C@@H]2O[C@H](CO)[C@@H](O[C@@H]3O[C@H](CO)[C@@H](O[C@@H]4O[C@H](CO)[C@@H](O)[C@H](O)[C@H]4NC(C)=O)[C@H](O)[C@H]3NC(C)=O)[C@H](O)[C@H]2NC(C)=O)[C@@H]1O` (some centres unmarked) [NAG6, hexa-N-acetylglucosamine], the “Ti with ligand (LysM3 alone 51.4 ± 0.1)” value worked out at 52.7 ± 0.4 °C.
